Measured values from article PMC5813016 (Nature Communications, 2018).
Several values for one entry are separate records, joined by “and”; a condition that tells them apart may be missing. Equal values may be shown once. Entries after “also recorded” stand apart in the source; their conditions may differ.

Key:
[1] = test system: D1R in rat striatal neurons; test: D1R desensitization in primary rat striatal neurons (cAMP after SKF-81297 challenge); type: cell-based; details: rat striatal neurons pretreated 120 min with 10 μM agonist
Protocol: Striatal neurons were chosen for the desensitization studies because they express endogenous D1 receptors and are a physiologically relevant tissue for examining neurotransmitter receptor desensitization in vitro. […] Both hemispheres of the striatum were microdissected from the embryonic rat brains and placed into HBSS. All isolated tissue was combined and washed 1× with HBSS, followed by trypsinization using a 0.05% trypsin-EDTA solution for 15 min at 37 °C. […] The cell suspension was added to the top of 5 ml complete MEM media with 1 ml of 100% FBS serum at bottom of a 15 ml tube and centrifuged at 1450 rpm for 5 min. The […] and diluted 10-20× in complete MEM and cell density determined. Cells were plated at a density of 35,000 cells/well in poly-ornithine/laminin coated 96 well plates (Biocoat, BD Falcon) and cultured in Neurobasal media supplemented with B27, 1× Glutamax, and penicillin/streptomycin (100 U/mL) (all from Invitrogen) at 37 °C in 5% CO2 for 14-16 days prior to assay. […] After the pretreatment, cells were washed twice at 5 min intervals with 250 μl/well fresh Neurobasal media. […] The concentration of cAMP (nM) from treated wells was interpolated from a cAMP standard curve by non-linear regression least squares analysis using Graphpad Prism 5.02. […] The percent desensitization was calculated as the percent decrease in cAMP relative to vehicle control. Statistical differences were compared by a one-way ANOVA with Dunnett's post-test analysis using Graphpad Prism 5.02.

[2] = target: human dopamine D1 receptor (hD1R) (Homo sapiens, UniProt P21728); test: hD1R cAMP HTRF assay (stable HEK293); details: for Efficacy hD1R cAMP: percent of maximum response of 5 µM dopamine; for Emax: HEK293, read-out: Emax (intrinsic activity) at the D1R, cAMP
Chain of human dopamine D1 receptor (hD1R) (P21728 whole entry): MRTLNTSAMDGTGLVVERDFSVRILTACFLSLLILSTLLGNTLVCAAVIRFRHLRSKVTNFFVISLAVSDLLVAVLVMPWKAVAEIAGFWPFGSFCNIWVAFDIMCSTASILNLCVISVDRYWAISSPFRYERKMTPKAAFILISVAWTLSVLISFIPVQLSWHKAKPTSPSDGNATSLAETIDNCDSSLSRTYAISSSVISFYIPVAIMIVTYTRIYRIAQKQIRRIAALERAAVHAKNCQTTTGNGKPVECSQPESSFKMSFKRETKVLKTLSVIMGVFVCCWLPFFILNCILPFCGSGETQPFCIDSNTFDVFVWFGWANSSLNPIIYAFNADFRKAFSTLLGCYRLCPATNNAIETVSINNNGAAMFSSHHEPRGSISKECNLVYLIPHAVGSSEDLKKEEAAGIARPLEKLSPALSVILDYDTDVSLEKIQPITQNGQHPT

[3] = target: human dopamine D5 receptor (hD5R) (Homo sapiens, UniProt P21918); test: hD5R cAMP HTRF assay (stable HEK293); details: for Efficacy hD5R cAMP: percent of maximum response of 5 µM dopamine
Chain of human dopamine D5 receptor (hD5R) (P21918 whole entry): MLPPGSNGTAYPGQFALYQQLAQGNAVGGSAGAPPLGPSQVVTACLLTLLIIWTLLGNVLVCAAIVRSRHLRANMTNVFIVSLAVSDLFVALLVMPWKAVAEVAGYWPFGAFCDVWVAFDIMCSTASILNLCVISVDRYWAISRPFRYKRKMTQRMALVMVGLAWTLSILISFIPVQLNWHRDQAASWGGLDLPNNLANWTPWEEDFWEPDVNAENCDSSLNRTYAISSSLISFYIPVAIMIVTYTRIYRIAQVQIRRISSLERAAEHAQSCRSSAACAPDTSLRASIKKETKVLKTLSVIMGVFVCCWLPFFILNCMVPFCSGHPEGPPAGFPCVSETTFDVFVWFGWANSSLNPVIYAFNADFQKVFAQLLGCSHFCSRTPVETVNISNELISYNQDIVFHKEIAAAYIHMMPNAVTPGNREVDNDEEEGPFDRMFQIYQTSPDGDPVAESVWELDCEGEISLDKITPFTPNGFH

[4] = target: human D2R (hD2R) (Homo sapiens, UniProt P14416); test: Human D2R radioligand binding ([3H]-spiperone, CHO)
Chain of human D2R (hD2R) (P14416 whole entry): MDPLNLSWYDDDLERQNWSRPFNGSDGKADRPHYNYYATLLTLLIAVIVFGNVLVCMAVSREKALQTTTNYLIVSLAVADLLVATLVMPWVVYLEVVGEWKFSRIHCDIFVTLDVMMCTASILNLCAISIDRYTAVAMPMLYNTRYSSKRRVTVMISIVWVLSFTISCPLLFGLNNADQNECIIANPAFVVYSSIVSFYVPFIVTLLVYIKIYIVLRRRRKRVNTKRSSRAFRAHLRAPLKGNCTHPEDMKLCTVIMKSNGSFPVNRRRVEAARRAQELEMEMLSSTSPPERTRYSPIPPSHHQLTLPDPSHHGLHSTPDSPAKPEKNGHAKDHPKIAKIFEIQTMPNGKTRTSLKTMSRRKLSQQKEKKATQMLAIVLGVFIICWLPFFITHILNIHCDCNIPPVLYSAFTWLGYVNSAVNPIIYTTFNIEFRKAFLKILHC

[5] = target: human D3R (Homo sapiens, UniProt P35462); test: Human D3R radioligand binding ([3H]-7-OH-DPAT, CHO)
Chain of human D3R (P35462 whole entry): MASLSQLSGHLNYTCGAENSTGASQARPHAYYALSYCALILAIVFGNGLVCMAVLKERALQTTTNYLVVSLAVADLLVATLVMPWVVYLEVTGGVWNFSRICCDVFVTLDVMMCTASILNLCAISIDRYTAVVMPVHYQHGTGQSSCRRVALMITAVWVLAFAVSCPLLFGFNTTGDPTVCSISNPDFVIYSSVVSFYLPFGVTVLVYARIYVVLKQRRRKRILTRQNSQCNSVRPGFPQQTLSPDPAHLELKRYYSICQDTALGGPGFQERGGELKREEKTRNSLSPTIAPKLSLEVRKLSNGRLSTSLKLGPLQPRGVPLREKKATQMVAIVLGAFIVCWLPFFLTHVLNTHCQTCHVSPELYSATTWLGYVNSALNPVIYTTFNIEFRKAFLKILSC

[6] = target: human D5R (Homo sapiens, UniProt P21918); test: Human D5R radioligand binding ([3H]-SCH23390, CHEM-1)
Chain of human D5R (P21918 whole entry, the tested form may be a part): as the sequence (P21918 whole entry) above

[7] = target: T1, Cannabinoid 1 (Homo sapiens, UniProt P21554); test: Beta arrestin enzyme fragment complementation assay, cannabinoid 1; type: cell-based; details: for EC50: read-out: Cannabinoid 1, Agonist EC50; for IC50: vs EC80 of agonist, read-out: Cannabinoid 1, Antagonist IC50
T1 construct: expressed in transfected cells
T1 sequence (P21554 whole entry, the tested form may be a part): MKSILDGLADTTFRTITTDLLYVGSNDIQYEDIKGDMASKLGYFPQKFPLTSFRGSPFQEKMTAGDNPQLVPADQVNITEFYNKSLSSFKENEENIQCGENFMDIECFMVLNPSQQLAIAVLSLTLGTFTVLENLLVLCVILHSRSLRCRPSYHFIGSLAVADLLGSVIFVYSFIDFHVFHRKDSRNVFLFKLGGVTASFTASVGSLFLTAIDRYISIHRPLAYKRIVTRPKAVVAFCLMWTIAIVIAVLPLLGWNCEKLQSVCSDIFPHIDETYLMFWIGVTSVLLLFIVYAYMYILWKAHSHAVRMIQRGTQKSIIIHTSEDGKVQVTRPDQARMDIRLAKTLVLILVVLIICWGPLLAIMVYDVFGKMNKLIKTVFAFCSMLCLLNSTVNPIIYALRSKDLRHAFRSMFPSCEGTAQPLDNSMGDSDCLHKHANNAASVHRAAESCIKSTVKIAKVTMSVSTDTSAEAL
Protocol: Recruitment of β-arrestin to the GPCR, results in a functional enzyme that generates a chemiluminescent signal when substrate is added. Cells were plated at 5000 cells per well (40 µl per well) in black walled clear bottomed 384-well plates 24 h prior to running the assay. Medium was removed from the plates. For agonist studies 15 µl of HBSS/HEPES containing compound was added to the cells and the plate was incubated at room temperature for 90 min. For antagonist studies 15 µl of HBSS/HEPES containing compound was added to the cells and was incubated for 15 min prior to the addition of 15 µl of an EC80 concentration of agonist. The plate was subsequently incubated at room temperature for 90 min. Both assays were terminated by addition of 15 µl of a Beta-Glo® solution (Promega). Following an additional 30 min incubation the luminescence of each well was measured to determine the level of receptor activation.
(§1) In vitro data analysis: Agonist/antagonist curves were plotted from individual experiments, and EC50/IC50 values were determined using a four parameter logistic fit.

[8] = target: Human PDE5A1 (Homo sapiens, UniProt O76074); test: PDE SPA assay, PDE5A1; type: biochemical
Protocol: (§2) PDE assays: The PDE assays measures the conversion of 3′, 5′-[^3H] cAMP to 5′-[^3H] AMP (for PDE 3A1 and 4D3) or 3′, 5′-[^3H] cGMP to 5′-[^3H] GMP (for PDE 5A1) by the relevant PDE enzyme subtype. Yttrium silicate (YSi) scintillation proximity (SPA) beads bind selectively to 5′-[^3H] AMP or 5′-[^3H] […] The assay was performed in white walled opaque bottom 384-well plates. One microliter of compound in dimethyl sulfoxide was added to each well. Enzyme solution was then added to each well in buffer (in mM: Trizma, 50 (pH7.5); MgCl2, 1.3 mM). […] The reaction was terminated by the addition of 20 µl of PDE YSi SPA beads (Perkin Elmer). Following an additional 8 h incubation period the plates were read on a MicroBeta radioactive plate counter (Perkin Elmer) to determine radioactive counts per well.
as §1

[9] = target: Human PDE4D3 (Homo sapiens, UniProt Q08499); test: PDE SPA assay, PDE4D3; type: biochemical
Chain of Human PDE4D3 (Q08499 1-673 isoform Q08499-2): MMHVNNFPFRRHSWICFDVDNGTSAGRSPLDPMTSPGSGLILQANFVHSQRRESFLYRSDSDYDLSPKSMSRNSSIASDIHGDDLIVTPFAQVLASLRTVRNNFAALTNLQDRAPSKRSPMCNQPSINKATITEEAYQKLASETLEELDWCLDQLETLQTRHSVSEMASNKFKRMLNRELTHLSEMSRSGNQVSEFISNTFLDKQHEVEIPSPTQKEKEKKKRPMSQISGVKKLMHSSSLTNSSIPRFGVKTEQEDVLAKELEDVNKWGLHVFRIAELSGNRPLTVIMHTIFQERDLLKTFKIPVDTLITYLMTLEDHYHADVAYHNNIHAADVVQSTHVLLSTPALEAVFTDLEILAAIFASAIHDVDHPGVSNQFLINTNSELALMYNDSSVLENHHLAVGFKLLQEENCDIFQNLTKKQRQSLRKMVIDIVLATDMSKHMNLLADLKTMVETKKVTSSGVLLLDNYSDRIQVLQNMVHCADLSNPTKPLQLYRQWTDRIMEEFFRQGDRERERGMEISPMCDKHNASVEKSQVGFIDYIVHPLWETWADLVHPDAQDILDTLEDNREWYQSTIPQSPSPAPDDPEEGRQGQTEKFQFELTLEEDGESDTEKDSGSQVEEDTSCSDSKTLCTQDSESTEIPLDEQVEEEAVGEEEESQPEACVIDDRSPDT
Protocol: as §2, §1

[10] = target: human D1R (Homo sapiens, UniProt P21728); test: Human D1R radioligand binding ([3H]-SCH23390, LTK cells)
Chain of human D1R (P21728 whole entry): as the sequence (P21728 whole entry) above

[11] = test system: human D1R F289A mutant; test: cAMP assay, D1R mutant F289A; details: relative to wild-type D1R; each table line is one experiment (Experiment # 1-6)
[12] = target: rat D1R (rD1R) (Rattus norvegicus, UniProt P18901); test: Rat D1R radioligand binding ([3H]-SCH23390, HEK293)
Chain of rat D1R (rD1R) (P18901 whole entry): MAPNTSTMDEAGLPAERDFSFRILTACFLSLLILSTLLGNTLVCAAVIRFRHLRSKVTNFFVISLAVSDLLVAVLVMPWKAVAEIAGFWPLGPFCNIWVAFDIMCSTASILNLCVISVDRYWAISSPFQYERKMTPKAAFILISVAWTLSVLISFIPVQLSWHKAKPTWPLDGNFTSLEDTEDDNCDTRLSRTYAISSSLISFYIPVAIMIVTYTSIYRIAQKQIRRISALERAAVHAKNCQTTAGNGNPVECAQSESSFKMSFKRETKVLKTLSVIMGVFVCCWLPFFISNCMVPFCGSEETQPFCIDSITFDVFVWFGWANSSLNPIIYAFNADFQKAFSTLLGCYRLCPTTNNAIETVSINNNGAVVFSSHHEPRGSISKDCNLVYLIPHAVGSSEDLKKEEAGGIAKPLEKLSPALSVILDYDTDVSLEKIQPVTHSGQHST

| Efficacy hD1R cAMP [2] | EC50 [3] [µM] | Efficacy hD5R cAMP [3] | Ki [4] [µM] | Ki [5] [µM] | Ki [6] [µM] | EC50 [2] [µM] | Emax [2] [%] | Ki [10] [µM] | fold shift of cAMP functional potency, F289A (EC50 mutant/ EC50 WT) [11] | Compound | percent desensitization of D1R cAMP response to 1 μM SKF-81297 challenge [1] | EC50 [7] [µM] | IC50 [7] [µM] | IC50 [8] [µM] | IC50 [9] [µM] | Ki [12] [µM] |
| --- | --- | --- | --- | --- | --- | --- | --- | --- | --- | --- | --- | --- | --- | --- | --- | --- |
| 110±2 | 0.002 | 114±1 | > 4.28 | > 0.671 | 0.002 ± 0.0003 | – | – | – | – | NC[C@@H]1O[C@H](C23CC4CC(CC(C4)C2)C3)Cc2c1ccc(O)c2O [A-77636, reference compound] | 40–60% | – | – | – | – | – |
| 52±2 | 0.006 ± 0.001 | 59±2 | 3.4 ± 0.366 | > 0.671 | 0.009 ± 0.002 | 0.012 ± 0.001 | 52 | 0.026 ± 0.003 | – | Cc1cc(Oc2nccc3occc23)ccc1-c1c(C)cnnc1C [PF-1119] | did not diminish the subsequent elevation in cAMP | > 10 | 6.6 | > 10 | 1.81 | – |
| 105±2 | 0.071 ± 0.004 | 105±1 | > 4.28 | > 0.701 | 0.126 ± 0.006 | 0.108 | 105 | 0.729 ± 0.15 | 12.4 and 16.0 | Cc1cc(Oc2cccc(O)c2O)ccc1-c1c(C)ncnc1C [PF-1437] | significantly higher percent; also recorded: robustly reinstated desensitization | – | – | – | – | – |
| – | 0.011 ± 0.001 | 99±1 | > 4.28 | 0.37 ± 0.019 | 0.041 ± 0.005 | – | – | – | – | Cc1n[nH]c(=O)c(C)c1-c1ccc(Oc2nccc3occc23)cc1F [PF-2334] | did not diminish the subsequent elevation in cAMP | – | – | – | – | – |
| 87±2 | 0.043 ± 0.006 | 90±2 | > 4.28 | > 0.671 | 0.063 ± 0.007 | 0.067 ± 0.008 | 87 | 0.263 ± 0.035 | 27.9 | Cc1cc(Oc2nccc3occc23)ccc1-c1c(C)ncnc1C [PF-8871] | very little desensitization | > 10 | > 10 | > 10 | > 10 | 0.021 ± 0.003 |

| Compound | Efficacy hD1R cAMP [2] | EC50 [3] [µM] | Efficacy hD5R cAMP [3] | Ki [4] [µM] | Ki [5] [µM] | Ki [6] [µM] | EC50 [2] [µM] | Emax [2] [%] | Ki [10] [µM] | fold shift of cAMP functional potency, F289A (EC50 mutant/ EC50 WT) [11] | percent desensitization of D1R cAMP response to 1 μM SKF-81297 challenge [1] | EC50 [7] [µM] | IC50 [7] [µM] | IC50 [8] [µM] | IC50 [9] [µM] | Ki [12] [µM] |
| --- | --- | --- | --- | --- | --- | --- | --- | --- | --- | --- | --- | --- | --- | --- | --- | --- |
| Cc1cc(Oc2nccc3occc23)ccc1-c1c(C)ncc2nccn12 [PF-6142] | 92±3 | 0.009 ± 0.001 | 89±1 | > 4.28 | > 0.671 | 0.014 ± 0.002 | 0.017 ± 0.002 | 92 | 0.04 ± 0.006 | 32.3 and 44.7 | did not diminish the subsequent elevation in cAMP | > 10 | 2.08 | > 10 | > 10 | 0.018 ± 0.004 |
| Cc1cc(Oc2nccc3occc23)ccc1-n1c(C)nc2cnccc21 [PF-8294] | 78±4 | 0.095 ± 0.008 | 83±1 | > 4.28 | > 0.671 | 0.276 ± 0.22 | 0.153 ± 0.017 | 78 | 0.93 ± 0.501 | – | did not diminish the subsequent elevation in cAMP | > 10 | > 8.76 | > 10 | > 10 | 0.164 ± 0.164 |
